Results: patent publication US12172988B2, “Anticancer and antifungal splice modulators” (priority 2021, dated 2024)
Like-named read-outs stand apart in the source and are kept apart here.

How the values were obtained:
AURKA = assay: qPCR splicing analysis, AURKA exon skipping / expression; assay type: cell-based, human; details: HCT116, 24 h, 100, 250, 500 nM
Description: (§1) HCT116 tumor cells were treated with each analogue at 20 times the G150 value (Table 12) for 4 hours and then cellular RNA was isolated and purified for qPCR. Primers were designed to evaluate intron retention or exon skipping, direct responses to splice modulator treatment. Genes evaluated included those involved in splicing regulation (SF3A1, SF3A3, SF3B1, SF3B2), apoptosis (MCL-1L), protein folding (DNAJB1), and cell cycle regulation (AURKA, PLK-1) relative to the unspliced control GAPDH. For alternative splicing regulator (SF2), primers were designed to evaluate gene expression, which changes in response splice modulator treatment for SF2 relative to the unspliced control GAPDH. (−) denotes untreated cells.
Next, we turned our efforts to explore the ability of these analogues to modulate splicing. […] We treated cells for 4 h so that we could evaluate early changes in splicing activity, and then cellular RNA was isolated and purified for analyses by qPCR (FIG. 14). […]
For these studies, we evaluated the expression of genes involved in splicing regulation (SF3A1, SF3A3, SF3B1, SF3B2), apoptosis (MCL-1L), protein folding (DNAJB1), and cell cycle regulation (AURKA, PLK-1) relative to the unspliced control GAPDH. […] The master splicing regulator alternative splicing factor (SF2) was also evaluated, with the primers for this gene designed to evaluate overall gene expression, which changes in response to splice modulator treatment. […]
Cells were treated with 1 or 1a-1j in media (McCoy's 5a (Life Technologies) supplemented with 10% FBS, 2 mM L-glutamine, and 100 U mL^−1 of penicillin and 100 μg mL^−1 of streptomycin 0.5% DMSO) for 4 h or 24 h. […] The amount of unspliced RNA for different genes was determined using Power SYBR Green PCR master mix (Applied Biosystems) by qPCR using specific primers for each gene. qPCR using 2.5 μM of each primer was performed on 5 ng of the obtained cDNA. qPCR conditions were as follows: 95° C. for 10 min for one cycle, then 95° C. for 10 min for one cycle, then 95° C. for 30 s, 55° C. for 60 s, 72° C. for 60 s, for 40 cycles using the MXPro. […]

DNAJB1 = assay: qPCR splicing analysis, DNAJB1 intron retention; assay type: cell-based, human; details: for DNAJB1 intron retention: HCT116, 24 h, 100, 250, 500 nM, compared to 1
Description: as §1
as §1, with “analogues” for “each analogue”, “100 nM (light grey), 250 nM (grey), or 500 nM (black)” for “20 times the G150 value (Table 12)”, “24 h” for “4 hours”, “(MCL-1L), and” for “(MCL-1L),”, “(DNAJB1),” for “(DNAJB1), and cell cycle regulation (AURKA, PLK-1)”, “(—)” for “(−)”
(§2) Next, we turned our efforts to explore the ability of these analogues to modulate splicing. […] We treated cells for 4 h so that we could evaluate early changes in splicing activity, and then cellular RNA was isolated and purified for analyses by qPCR (FIG. 14). Most importantly, none of the concentrations tested led to significant changes in cell viability, ensuring that changes in gene expression were not due to cell death.
(§3) For these studies, we evaluated the expression of genes involved in splicing regulation (SF3A1, SF3A3, SF3B1, SF3B2), apoptosis (MCL-1L), protein folding (DNAJB1), and cell cycle regulation (AURKA, PLK-1) relative to the unspliced control GAPDH. Primers were designed to evaluate intron retention or exon skipping, direct responses to splice modulator treatment. The master splicing regulator alternative splicing factor (SF2) was also evaluated, with the primers for this gene designed to evaluate overall gene expression, which changes in response to splice modulator treatment.
From this 4 h study (FIG. 14), a small set of analogs (1, 1b, 1g, 1d, 1e, 1i and 1j) were selected to evaluate if effects on splicing when presented for a longer 24 h period. […] Using identical procedures as that used for 4 h, HCT116 cells were treated with three concentrations (100 nM, 250 nM and 500 nM) of each analog for 24 h. Multiple concentrations were used as a means to check further validate the use of the GI50 concentration in our prior study (FIG. 14). As before, none of the concentrations tested led to significant changes in cell viability over the 24-hour time window, ensuring that changes in gene expression were not due to cell death.
Cells were treated with 1 or 1a-1j in media (McCoy's 5a (Life Technologies) supplemented with 10% FBS, 2 mM L-glutamine, and 100 U mL^−1 of penicillin and 100 μg mL^−1 of streptomycin 0.5% DMSO) for 4 h or 24 h. Untreated cells were considered were used as negative control. Total RNA was isolated using mirVana miRNA isolation kit (Life Technologies). […]

SF3A3 = assay: qPCR splicing analysis, SF3A3 intron retention; assay type: cell-based, human; details: HCT116, 24 h, 100, 250, 500 nM
Description: as §1
HCT116 tumor cells were treated with analogues at 100 nM (light grey), 250 nM (grey), or 500 nM (black) for 24 h and then cellular RNA was isolated and purified for qPCR. […] Genes evaluated included those involved in splicing regulation (SF3A1, SF3A3, SF3B1, SF3B2), apoptosis (MCL-1L), and protein folding (DNAJB1), relative to the unspliced control GAPDH. […]
For these studies, we evaluated the expression of genes involved in splicing regulation (SF3A1, SF3A3, SF3B1, SF3B2), apoptosis (MCL-1L), protein folding (DNAJB1), and cell cycle regulation (AURKA, PLK-1) relative to the unspliced control GAPDH. […]

SF2 = assay: qPCR gene expression of alternative splicing factor SF2; assay type: cell-based, human; details: for SF2 RNA expression: HCT116, 24 h, 100, 250, 500 nM, compared to 1
Description: as §1
as §1, with “analogues” for “each analogue”, “100 nM (light grey), 250 nM (grey), or 500 nM (black)” for “20 times the G150 value (Table 12)”, “24 h” for “4 hours”, “(MCL-1L), and” for “(MCL-1L),”, “(DNAJB1),” for “(DNAJB1), and cell cycle regulation (AURKA, PLK-1)”, “(—)” for “(−)”
as §2, §3
From this 4 h study (FIG. 14), a small set of analogs (1, 1b, 1g, 1d, 1e, 1i and 1j) were selected to evaluate if effects on splicing when presented for a longer 24 h period. […] Using identical procedures as that used for 4 h, HCT116 cells were treated with three concentrations (100 nM, 250 nM and 500 nM) of each analog for 24 h. […]

[1] = compared with C16-C17 isomers / pladienolides, cited from earlier work
[2] = in vivo; cited from earlier work

| Compound | AURKA expression (AURKA) | DNAJB1 intron 2 retention (level of intron retention) (DNAJB1; HCT116, 4 h, 20 times GI50, qPCR relative to GAPDH) | DNAJB1 intron retention (DNAJB1) | SF3A3 intron retention (SF3A3) | down regulating the expression of SF2 RNA (SF2; HCT116, 4 h, 20 times GI50, qPCR) | SF2 RNA expression (SF2) | stability (words) [1] | stability (words) ([1]; listed as 17S-FD-895) | MTD [2] |
| --- | --- | --- | --- | --- | --- | --- | --- | --- | --- |
| CC[C@@H](OC)[C@H](C)[C@H]1O[C@@H]1[C@@H](O)[C@H](C)/C=C/C=C(\C)[C@H]1OC(=O)C[C@H](O)CC[C@@](C)(O)[C@@H](OC(C)=O)/C=C/[C@@H]1C [Analog 1j, 17S,20S,21R-FD-895] | reducing the expression of AURKA at 500 nM |  |  |  |  |  |  |  |  |
| CC[C@H](OC)[C@@H](C)[C@H]1O[C@@H]1[C@@H](O)[C@H](C)/C=C/C=C(\C)[C@H]1OC(=O)C[C@@H](O)CC[C@@](C)(O)[C@@H](OC(C)=O)/C=C/[C@@H]1C [Analog 1g, 3S,17S-FD-895] | altered the expression of AURKA comparable to 1 | highest level of intron retention | loss in intron retention | concentration dependent increase intron retention | highest efficacy | reduced ability to inhibit SF2 RNA expression |  |  |  |
| CC[C@H](OC)[C@@H](C)[C@H]1O[C@@H]1[C@@H](O)[C@H](C)/C=C/C=C(\C)[C@H]1OC(=O)C[C@H](O)CC[C@@](C)(O)[C@@H](OC(C)=O)/C=C/[C@@H]1C [Analog 1d, 17S-FD-895] |  |  | decreased level of intron retention |  |  | decreased effect at reducing | increased stability | metabolically-improved | 4 mg/kg |
